Assays:
BRAF-MEK1 complex [1] = target: T1, BRAF-MEK1 complex (Homo sapiens, UniProt P15056+Q02750); experiment: Co-immunoprecipitation via endogenous MEK1 from HCT116 cells, BRAF; assay type: cell-based; details: 200 nM, 1 hour, relative to DMSO
T1 construct: IP/WB of endogenous MEK1 from HCT116 cells; endogenous in cells; host or cells: HCT116

[2] = target: T2, mouse KSR1-luc (KSR-bound MEK) (UniProt Q02750+Q61097); experiment: NanoBRET in-cell steady-state IC50 (competition with tram-bo tracer), KSR1-luc; assay type: binding
T2 construct: expressed in transfected cells; host or cells: HEK293T

MEK1-luc [3] = target: T3, MEK1-luc (Homo sapiens, UniProt Q02750); experiment: NanoBRET washout experiment, intracellular residence time, MEK1-luc; assay type: binding; details: BRET build-up with 1 μM tram-bo, […] time course
Experimental: (§1) Specifically, transfections of MEK1-luc and KSR1-luc, and construction of the drug transfer plates were carried out as mentioned above. For washout experiments, cells were first removed from adherent plates by trypsin treatment. Following, cells were harvested, spun, and resuspended in Opti-MEM (270 μL total) in centrifuge tubes at 450,000 cells/tube.

BRAF-MEK1 complex [4] = target: BRAF-MEK1 complex (Homo sapiens, UniProt P15056+Q02750, R662A); experiment: Co-immunoprecipitation via endogenous MEK1 from HCT116 cells, BRAF; assay type: cell-based; details: 200 nM, 1 hour
KSR1-MEK1 complex = KSR1-MEK1 complex (UniProt Q02750+Q61097, P775N); experiment: Co-immunoprecipitation via endogenous MEK1 from HCT116 cells, FLAG-KSR1; assay type: cell-based, mouse KSR1; details: 200 nM, 1 hour
MEK1-luc [5] = target: T3, MEK1-luc; experiment: NanoBRET in-cell steady-state IC50 (competition with tram-bo tracer), MEK1-luc; details: IC50 MEK1-luc versus KSR1-luc
KSR1-luc (KSR-bound MEK) = KSR1-luc (KSR-bound MEK) (UniProt Q02750+Q61097); experiment: NanoBRET washout experiment, intracellular residence time, KSR1-luc; assay type: binding, mouse; details: BRET build-up with 1 μM tram-bo, […] time course
Experimental: as §1

KRAS-G12S A549 cells = experiment: Long-term clonogenic assay; assay type: cell-based, human; details: 10 nM final concentration, in comparison to amide-linker compounds (1, 3)
Experimental: Cells were plated at a density of 6,000 cells per well in 6-well plates in 3 mL of culture medium. Twenty-four hours after seeding, compounds dissolved in DMSO or DMSO-only vehicles were added directly to the culture media at a 1:1000 dilution. Following 10 days of culture, cells were washed 2× in PBS, fixed in ice-cold methanol for 10 minutes, stained with crystal-violet at room temperature for 10 minutes, and subsequently washed three times in water. Plates were allowed to dry overnight before imagining with an Epson V600 scanner.

[6] = test system: ARAF-luc, BRAF-luc, and CRAF-luc; experiment: Tram-bo BRET buildup curves, RAF family; assay type: binding, human; details: in cells
Experimental: (§2) Human c-terminal NanoLuc fusions versions of ARAF (Uniprot P10398), BRAF (UniProt P15056), CRAF (Uniprot P04049), KSR1 (Uniprot Q8IVT5), and KSR2 (Uniprot Q6VAB6) were transfected as mentioned above at a concentration of 0.1 μg/mL in combination with 9.9 μg/mL of carrier DNA. All RAF constructs from Promega. […] A 20× tram-bo solution was added to each well to give final concentrations of 4, 1, 0.5, 0.1, 0.05, 0.01, 0.001, 0.0001 μM. […] All data were analyzed using Prism 8 (GraphPad).

human KSR2-luc = target: T4, human KSR2-luc (Homo sapiens, UniProt Q02750+Q6VAB6); experiment: Tram-bo BRET buildup curves, KSR2-luc; assay type: binding
T4 construct: expressed in transfected cells; host or cells: HEK293T
Experimental: as §2

human KSR1-luc = target: T5, human KSR1-luc (Homo sapiens, UniProt Q02750+Q8IVT5); experiment: Tram-bo BRET buildup curves, KSR1-luc; assay type: binding
T5 construct: expressed in transfected cells; host or cells: HEK293T
Experimental: as §2

MEK1 and MEK2 [7] = experiment: In vitro substrate phosphorylation assays, MEK1/MEK2; assay type: biochemical; details: panel of active kinases
From the text: (§3) FIG. 65 Trametiglue targets both KSR-MEK and RAF-MEK with unprecedented potency and selectivity via unique interfacial binding interactions.

HCT 116 = experiment: Cell proliferation / viability assay under low-adherence conditions; assay type: cell-based, human
Experimental: A375, A549, HCT116, and SKMEL-239 cells were plated in Corning Costar Ultra-Low Attachment 96-well plates (Reference number 3434). After 24 hours of incubation at 37° C., cells were treated with inhibitors (0.1% DMSO in final volume). Cells were grown for five days, and resazurin sodium salt was added at a final concentration of 0.01 μg/μL. Fluorescence was measured using a Molecular Devices SpectraMax M5 spectrophotometer after a 4-24-hour incubation with resazurin solution. Technical triplicate values were averaged for each experiment, and biological replicate values are represented as average+/−standard deviation. For each cell line, log EC50 values of inhibitors were statistically compared using the extra sum-of-squares F test in GraphPad Prism 8 (FIG. 57, 58, 67, 68, 69).

[8] = test system: phosphorylated ERK1/2 at residues T202 and Y204 (pERK); experiment: Immunoblot of RAS/ERK pathway inhibition; assay type: cell-based, human; details: 1 hour, increasing concentrations
Experimental: Cells were plated at a density of 300,000 cells per well in 6-well plates in 2 mL of culture medium. 24 hours after seeding, cells were treated with compounds or DMSO at a 1:1000 dilution (0.1% DMSO in final volume). […] Samples were normalized to a protein content of 5 μg/μL in 100 μL total volume, and 20 μL of 6×SDS was added. […] Transfers were confirmed using ponceau red, washed, and then blocked for 1 hour with 5% BSA TBS-T, prior to overnight incubation with primary antibodies including phospho-ERK1/2 T202/Y204 and total ERK1/2 (Cell Signaling Technologies (CST) 9101S and 4695S, respectively) in 5% BSA TBS-T. The next day, blots were washed extensively, and incubated in secondary antibody (Anti-Rabbit IgG HRP-Linked CST 7074S).

MEK1 and MEK2 [9] = experiment: In vitro kinase profiling, direct binding assays, MEK1/MEK2; details: 1 μM
From the text: as §3

isolated BRAF or CRAF = experiment: In vitro kinase profiling, direct binding assays, BRAF/CRAF; details: 1 μM
From the text: as §3

[10] = test system: BRAF and CRAF phosphorylation of MEK1; experiment: In vitro phosphorylation of MEK1 by upstream kinases; assay type: biochemical; details: MEK1 as substrate
From the text: as §3

KSR1-MEK1 = target: T6, KSR1-MEK1 (UniProt P29678+Q8IVT5, S298N/S299K/Y300F); experiment: Bio-layer interferometry (BLI), KSR1-MEK1; assay type: binding, human KSR1; rabbit MEK1; details: read-out: dissociation constant (KD), KSR1-MEK1
T6 construct: human KSR1 (residues 591-899; Uniprot ID:Q8IVT5); rabbit MEK1 (residues 35-393; Uniprot ID: P29678); hexahistidine tag with TEV-cleavage site (N); made in house; host or cells: SF21 insect cells (baculovirus)
Experimental: (§4) BLI measurements were performed using an Octet Red96 (Forte Bio, Inc.) system. All experiments were conducted at 25° C. with shaking at 1000 rpm, and in a buffer containing 20 mM Hepes pH 7.5, 200 mM NaCl, 1 mM ATP, 5 mM MgCl2, 0.02% Tween-20, 1% DMSO. […] This amount of immobilization typically achieved 1.5-2.0 nm binding signal. Biosensors were then washed in buffer, treated in a solution of biocytin for 3 min, and then again washed extensively to achieve a normalized baseline signal of ˜0 nm. Following, for kinetic analysis, biosensors were dipped in solutions of free MEK1, BRAF:MEK1, KSR1:MEK1, or KSR2:MEK1. Association was measured for 10 or 15 minutes, following a dissociation phase in buffer of 15 minutes. […] All experiments were performed at least three independent times, with raw data processed and analyzed using global fit binding models in Fortebio software to derive KD (M), Kon(1/M·s), and Kdis (1/s) values. […] One-to-one binding models provided a high agreement with the measured binding signals based on chi-squared and R-squared values. Raw data and fitting, mean and standard deviation determinations, as well as statistical analysis, for KD, kon(1/M·s), kdis(1/s), and τ(min) are included in FIG. 71.

isolated MEK1 = target: T7, isolated MEK1 (Oryctolagus cuniculus, UniProt P29678, S298N/S299K/Y300F); experiment: Bio-layer interferometry (BLI), isolated MEK1; assay type: binding, rabbit; details: read-out: dissociation constant (KD), isolated MEK1
T7 construct: rabbit MEK1 (residues 35-393; Uniprot ID: P29678); hexahistidine tag with TEV-cleavage site (N); made in house; host or cells: SF21 insect cells (baculovirus)
Experimental: as §4

BRAF-MEK1 = target: T8, BRAF-MEK1 (Oryctolagus cuniculus, UniProt P29678, S298N/S299K/Y300F); experiment: Bio-layer interferometry (BLI), BRAF-MEK1; assay type: binding, human BRAF; rabbit MEK1; details: read-out: dissociation constant (KD), MEK1-BRAF
T8 construct: human BRAF (residues 432-726; Uniprot ID: P15056); rabbit MEK1 (residues 35-393; Uniprot ID: P29678); hexahistidine tag with TEV-cleavage site (N); made in house; host or cells: SF21 insect cells (baculovirus)
Experimental: as §4

KSR2-MEK1 = target: T9, KSR2-MEK1 (UniProt P29678+Q6VAB6, S298N/S299K/Y300F); experiment: Bio-layer interferometry (BLI), KSR2-MEK1; assay type: binding, human KSR2; rabbit MEK1; details: read-out: dissociation constant (KD), KSR2-MEK1
T9 construct: human KSR2 (residues 634-950; Uniprot ID: Q6VAB6); rabbit MEK1 (residues 35-393; Uniprot ID: P29678); hexahistidine tag with TEV-cleavage site (N); made in house; host or cells: SF21 insect cells (baculovirus)
Experimental: as §4

[11] = BRET buildup, increasing tram-bo
[12] = HCT 116, low-adherence conditions

T9 sequence (Q6VAB6 634-950): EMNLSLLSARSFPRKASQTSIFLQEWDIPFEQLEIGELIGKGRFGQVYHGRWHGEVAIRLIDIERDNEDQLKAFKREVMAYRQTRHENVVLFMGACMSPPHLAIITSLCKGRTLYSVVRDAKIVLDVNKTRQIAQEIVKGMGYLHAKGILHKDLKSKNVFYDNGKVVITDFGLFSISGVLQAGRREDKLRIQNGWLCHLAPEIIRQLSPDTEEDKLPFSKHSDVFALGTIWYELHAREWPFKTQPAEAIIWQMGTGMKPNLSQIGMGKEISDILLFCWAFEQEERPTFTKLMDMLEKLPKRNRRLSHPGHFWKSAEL
T9 sequence (P29678 35-393 S298N/S299K/Y300F): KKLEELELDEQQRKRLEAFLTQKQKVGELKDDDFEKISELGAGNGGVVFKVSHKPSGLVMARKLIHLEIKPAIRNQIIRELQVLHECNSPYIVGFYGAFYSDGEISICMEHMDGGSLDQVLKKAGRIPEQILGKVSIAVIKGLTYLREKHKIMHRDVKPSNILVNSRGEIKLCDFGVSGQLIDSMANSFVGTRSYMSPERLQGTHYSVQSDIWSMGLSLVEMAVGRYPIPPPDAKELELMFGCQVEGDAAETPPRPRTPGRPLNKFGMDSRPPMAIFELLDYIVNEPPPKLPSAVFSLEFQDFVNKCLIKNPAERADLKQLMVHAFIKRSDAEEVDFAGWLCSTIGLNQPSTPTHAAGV
T8 sequence (P29678 35-393 S298N/S299K/Y300F): as above
T7 sequence (P29678 35-393 S298N/S299K/Y300F): as above
T6 sequence (Q8IVT5 591-899): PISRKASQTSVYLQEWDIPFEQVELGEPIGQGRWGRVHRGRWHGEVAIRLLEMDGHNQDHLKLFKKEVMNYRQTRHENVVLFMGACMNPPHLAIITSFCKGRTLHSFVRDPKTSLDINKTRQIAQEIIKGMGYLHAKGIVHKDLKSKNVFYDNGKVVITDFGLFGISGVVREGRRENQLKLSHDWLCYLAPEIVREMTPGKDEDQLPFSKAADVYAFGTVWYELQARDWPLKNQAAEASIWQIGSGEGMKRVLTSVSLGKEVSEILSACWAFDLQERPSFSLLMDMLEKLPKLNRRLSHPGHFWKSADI
T6 sequence (P29678 35-393 S298N/S299K/Y300F): as the sequence (P29678 35-393 S298N/S299K/Y300F) above

## CNS(=O)(=O)Nc1nccc(Cc2c(C)c3ccc(Oc4ncccn4)cc3oc2=O)c1F [CH5126766]
BRAF-MEK1 complex [1]
  pulldown of wild-type BRAF via endogenous MEK1: enhances interactions between endogenous BRAF and MEK1

## O=C(c1ccc(F)c(F)c1Nc1ccc(I)cc1F)N1CC(O)([C@@H]2CCCCN2)C1 [cobimetinib]
[2]; competition of tram-bo
  IC50 on KSR1-luc compared with MEK1-luc: more potent IC50 values on KSR1-luc over MEK1-luc
MEK1-luc [3]
  dissociation kinetics after washout on MEK1-luc: dissociated more readily
BRAF-MEK1 complex [4]
  pulldown of BRAF mutant B2 (R662A) via endogenous MEK1: did not alter complex stability
KSR1-MEK1 complex
  pulldown of KSR1 mutant K1 (P775N) via endogenous MEK1: did not alter complex stability
MEK1-luc [5]
  difference in potency between KSR1-luc and MEK1-luc: ~20 fold
KSR1-luc (KSR-bound MEK)
  dissociation kinetics after washout on KSR1-luc: dissociated more readily

## Cc1c(=O)n(C)c(Nc2ccc(I)cc2F)c2c(=O)n(C3CC3)c(=O)n(-c3cccc(NS(=O)(=O)NC4CC4)c3)c12 [compound 5, N-(3-(3-cyclopropyl-5-((2-fluoro-4-iodophenyl)amino)-6,8-dimethyl-2,4,7-trioxo-3,4,6,7-tetrahydropyrido[4,3-d]pyrimidin-1(2H)-yl)phenyl)cyclopropylaminosulfonamide]
KRAS-G12S A549 cells
  growth inhibition in clonogenic assay: enhanced and durable growth inhibition

## CCN(C)S(=O)(=O)Nc1cccc(-n2c(=O)n(C3CC3)c(=O)c3c(Nc4ccc(I)cc4F)n(C)c(=O)c(C)c32)c1 [compound 6, N-(3-(3-cyclopropyl-5-((2-fluoro-4-iodophenyl)amino)-6,8-dimethyl-2,4,7-trioxo-3,4,6,7-tetrahydropyrido[4,3-d]pyrimidin-1(2H)-yl)phenyl)-N′-ethyl(methyl)sulfonamide 2,2,2-trifluoroacetate]
KRAS-G12S A549 cells
  growth inhibition in clonogenic assay: enhanced and durable growth inhibition

## Cc1c(=O)n(C)c(Nc2ccc(I)cc2F)c2c(=O)n(C3CC3)c(=O)n(-c3cccc(NC(=O)CCOCCOCCNC(=O)CCC4=[N+]5C(=Cc6ccc(-c7ccc[nH]7)n6[B-]5(F)F)C=C4)c3)c12 [tram-bo]
[6]
  BRET signal, ARAF-luc, BRAF-luc, CRAF-luc: much weaker BRET signals
Human KSR2-luc; [11]
  binding to KSR2-luc relative to ARAF-luc, BRAF-luc and CRAF-luc: ~10 fold
Human KSR2-luc; in cells
  BRET binding signal, KSR2-luc: strong BRET binding signals
Human KSR1-luc; [11]
  binding to KSR1-luc relative to ARAF-luc, BRAF-luc and CRAF-luc: ~10 fold
Human KSR1-luc; in cells
  BRET binding signal, KSR1-luc: strong BRET binding signals

## CNS(=O)(=O)Nc1cccc(-n2c(=O)n(C3CC3)c(=O)c3c(Nc4ccc(I)cc4F)n(C)c(=O)c(C)c32)c1 [trametiglue, N-(3-(3-Cyclopropyl-5-((2-fluoro-4-iodophenyl)amino)-6,8-dimethyl-2,4,7-trioxo-3,4,6,7-tetrahydropyrido[4,3-d]pyrimidin-1(2H)-yl)phenyl)methylaminosulfonamide]
KRAS-G12S A549 cells
  growth inhibition in clonogenic assay: enhanced and durable growth inhibition
[2]; KSR-luc or MEK-luc reporters, steady-state and washout
  potency and off-rate kinetics compared with trametinib: retained similar potency and off-rate kinetics as trametinib
MEK1 and MEK2 [7]
  inhibition of MEK1 and MEK2 substrate phosphorylation: inhibited MEK1 and MEK2
BRAF-MEK1 complex [1]
  pulldown of wild-type BRAF via endogenous MEK1: markedly enhanced capture of BRAF
HCT 116; [12]
  improvement in potency relative to CH5126766: ~200 fold
  improvement in potency relative to trametinib: approximately 7 fold
HCT 116; Homo sapiens, HCT-116, 120 h, low-adherence conditions, five days
  IC50: 0.07 ± 0.04 nM
[8]
  inhibition of RAS-MAPK signaling measured by pERK, relative to trametinib: higher potency inhibitor of RAS-MAPK signaling
MEK1 and MEK2 [9]
  selectivity in kinase binding experiments: strong selectivity towards MEK1 and MEK2
Isolated BRAF or CRAF
  direct interaction with isolated BRAF or CRAF: no direct interactions
[10]
  inhibition of MEK1 phosphorylation by upstream kinases: inhibition of both BRAF and CRAF phosphorylation of MEK1

## CC(=O)Nc1cccc(-n2c(=O)n(C3CC3)c(=O)c3c(Nc4ccc(I)cc4F)n(C)c(=O)c(C)c32)c1 [trametinib]
KSR1-MEK1
  Kd: 63.9 ± 4.7 nM
Isolated MEK1
  Kd: 131 ± 9.4 nM
BRAF-MEK1
  Kd: 217 ± 3.2 nM
KSR2-MEK1
  Kd: 70.4 ± 4.4 nM
